# Measurements: paper PMC4029847 (Journal of clinical pharmacology, 2013)
# Target: T1, OATP1A2 (Homo sapiens, UniProt P46721)
# T1 sequence (P46721 1-670): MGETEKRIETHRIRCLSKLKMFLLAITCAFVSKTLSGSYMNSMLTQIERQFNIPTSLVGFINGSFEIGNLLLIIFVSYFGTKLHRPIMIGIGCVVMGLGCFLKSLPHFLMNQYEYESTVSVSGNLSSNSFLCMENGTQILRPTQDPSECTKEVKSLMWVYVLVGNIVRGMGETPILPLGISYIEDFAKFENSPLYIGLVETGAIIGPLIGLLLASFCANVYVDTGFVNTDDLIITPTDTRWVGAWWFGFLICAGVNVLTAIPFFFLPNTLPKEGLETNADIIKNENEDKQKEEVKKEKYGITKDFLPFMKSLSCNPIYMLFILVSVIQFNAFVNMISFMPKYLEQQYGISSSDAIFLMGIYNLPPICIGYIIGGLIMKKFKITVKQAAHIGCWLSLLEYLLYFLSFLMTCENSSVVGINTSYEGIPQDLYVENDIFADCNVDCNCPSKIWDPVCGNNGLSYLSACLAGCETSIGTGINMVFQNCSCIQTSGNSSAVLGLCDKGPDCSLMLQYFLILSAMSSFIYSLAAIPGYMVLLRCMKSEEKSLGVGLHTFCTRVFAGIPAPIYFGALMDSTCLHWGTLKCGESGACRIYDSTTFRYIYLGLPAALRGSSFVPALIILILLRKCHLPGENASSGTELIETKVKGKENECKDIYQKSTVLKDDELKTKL
# Assay: Inhibition of fexofenadine uptake in OATP1A2-transfected HEK293T/17 cells
# Assay type: cell-based
# Conditions: inhibitor 250 μmol/l, fexofenadine 5 μmol/l, 30 min
smiles,measurement,value
"O=C1OC(c2ccc(O)c(S(=O)(=O)O)c2)(c2ccc(O)c(S(=O)(=O)O)c2)c2c(Br)c(Br)c(Br)c(Br)c21 [BSP, bromosulfophthalein]",Inhibition of fexofenadine uptake,did not inhibit
